Experimental data published in the NIST ThermoML archive (doi:10.1021/je0601513).

Assay: xn = mol fraction of the nth substance listed
Conditions: 101 kPa, Liquid; for viscosity: Capillary tube (Ostwald / Ubbelohde) method

C[S+](C)[O-] [dimethyl sulfoxide] + CCCO
Conditions | mass density [kg/m3] | viscosity [mPa·s]
288.15 K, x1 = 0.0533 | 822.73 | 2.251
288.15 K, x1 = 0.0938 | 834.33 | 2.1
288.15 K, x1 = 0.1708 | 856.51 | 1.937
288.15 K, x1 = 0.2592 | 882.15 | 1.835
288.15 K, x1 = 0.346 | 907.54 | 1.81
288.15 K, x1 = 0.4294 | 932.12 | 1.819
288.15 K, x1 = 0.5115 | 956.49 | 1.864
288.15 K, x1 = 0.5981 | 982.38 | 1.927
288.15 K, x1 = 0.6853 | 1008.66 | 1.999
288.15 K, x1 = 0.7596 | 1031.23 | 2.086
288.15 K, x1 = 0.8438 | 1057.01 | 2.206
288.15 K, x1 = 0.9368 | 1085.71 | 2.348
298.15 K, x1 = 0.0554 | 815.18 | 1.799
298.15 K, x1 = 0.1366 | 838.3 | 1.635
298.15 K, x1 = 0.22 | 862.21 | 1.522
298.15 K, x1 = 0.2987 | 884.95 | 1.486
298.15 K, x1 = 0.4289 | 922.94 | 1.487
298.15 K, x1 = 0.5022 | 944.55 | 1.517
298.15 K, x1 = 0.5992 | 973.37 | 1.575
298.15 K, x1 = 0.677 | 996.69 | 1.633
298.15 K, x1 = 0.7656 | 1023.43 | 1.71
298.15 K, x1 = 0.8358 | 1044.81 | 1.786
298.15 K, x1 = 0.9181 | 1070.04 | 1.881
298.15 K, x1 = 0.9646 | 1084.38 | 1.942
308.15 K, x1 = 0.0537 | 806.44 | 1.439
308.15 K, x1 = 0.1336 | 828.96 | 1.319
308.15 K, x1 = 0.2147 | 852.03 | 1.264
308.15 K, x1 = 0.2987 | 876.11 | 1.237
308.15 K, x1 = 0.3876 | 901.81 | 1.243
308.15 K, x1 = 0.4707 | 926.08 | 1.265
308.15 K, x1 = 0.5552 | 950.93 | 1.296
308.15 K, x1 = 0.6418 | 976.65 | 1.343
308.15 K, x1 = 0.7191 | 999.78 | 1.401
308.15 K, x1 = 0.7998 | 1024.11 | 1.474
308.15 K, x1 = 0.877 | 1047.58 | 1.545
308.15 K, x1 = 0.965 | 1074.53 | 1.621
